Results: PubChem BioAssay AID330 (DTP/NCI, 2004)
“And” between values parts separate entries of the source, which are not always exact repeats. Identical values can stand only once. Toxic doses and inconclusive results are not listed. How the source made its calls: active means survival T/C of 150% or more; inactive means T/C below 125% in these data.

Test system: P388 leukemia ip, CD2F1 mice, survival T/C
Test: NCI In Vivo Anticancer Drug Screen. Data for tumor model P388 Leukemia (intraperitoneal) in CD2F1 (CDF1) mice
Details: endpoint: median survival time, higher = longer survival
Procedure, shortened: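 Mice carrying the transplanted tumor received test compound or vehicle. Survival was recorded in each group, and the value is the treated-group measurement divided by that of the vehicle-treated control group.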

[1] = dose: 60.0 mg/kg/injection, schedule: Q01DX005 (ip), vehicle: Klucel (hydroxypropylcellulose) (HPC)
[2] = dose: 120.0 mg/kg/injection, schedule: Q01DX005 (ip), vehicle: Klucel (hydroxypropylcellulose) (HPC)
[3] = dose: 240.0 mg/kg/injection, schedule: Q01DX005 (ip), vehicle: Klucel (hydroxypropylcellulose) (HPC)
[4] = dose: 50.0 mg/kg/injection, schedule: Q01DX009 (ip), vehicle: saline with Tween-80
[5] = dose: 100.0 mg/kg/injection, schedule: Q01DX009 (ip), vehicle: saline with Tween-80
[6] = dose: 12.5 mg/kg/injection, schedule: Q01DX009 (ip), vehicle: saline with Tween-80
[7] = dose: 25.0 mg/kg/injection, schedule: Q01DX009 (ip), vehicle: saline with Tween-80
[8] = dose: 50.0 mg/kg/injection, schedule: Q01DX005 (ip), vehicle: Klucel (hydroxypropylcellulose) (HPC)
[9] = dose: 100.0 mg/kg/injection, schedule: Q01DX005 (ip), vehicle: Klucel (hydroxypropylcellulose) (HPC)
[10] = dose: 200.0 mg/kg/injection, schedule: Q01DX005 (ip), vehicle: Klucel (hydroxypropylcellulose) (HPC)
[11] = dose: 25.0 mg/kg/injection, schedule: Q01DX005 (ip), vehicle: Klucel (hydroxypropylcellulose) (HPC)
[12] = dose: 50.0 mg/kg/injection, schedule: Q01DX005 (ip), vehicle: saline
[13] = dose: 100.0 mg/kg/injection, schedule: Q01DX005 (ip), vehicle: saline
[14] = dose: 200.0 mg/kg/injection, schedule: Q01DX005 (ip), vehicle: saline
[15] = dose: 60.0 mg/kg/injection, schedule: Q01DX005 (ip), vehicle: saline with Tween-80
[16] = dose: 120.0 mg/kg/injection, schedule: Q01DX005 (ip), vehicle: saline with Tween-80
[17] = dose: 240.0 mg/kg/injection, schedule: Q01DX005 (ip), vehicle: saline with Tween-80

Measured: T/C

CC(=O)C(CCCn1c(=O)c2c(ncn2C)n(C)c1=O)CCCn1c(=O)c2c(ncn2C)n(C)c1=O
inactive: [1] 102 % of control | [2] 99 % of control | [3] 104 % of control

O=C(Nc1ccc(Br)cc1C(F)(F)F)O/N=C(\c1ccccc1)C(O)c1ccccc1 (stereo not drawn)
inactive: [4] 101 % of control | [5] 96 % of control | dose: 200.0 mg/kg/injection, schedule: Q01DX009 (ip), vehicle: saline with Tween-80 100 % of control

CC1=CCC2CN(CCN(C)C)CC2C1 (stereo not drawn)
inactive: dose: 50.0 mg/kg/injection, schedule: Q01DX005 (ip), vehicle: saline with Tween-80 100 % of control | dose: 100.0 mg/kg/injection, schedule: Q01DX005 (ip), vehicle: saline with Tween-80 99 % of control

Nc1ccc(/C=C/c2ccc3ncccc3c2)cc1
inactive: [6] 100 % of control | [7] 109 % of control | [4] 97 % of control

C/C=C1\CN(C)C2Cc3c([nH]c4ccccc34)C(c3c(OC)ccc4c5c([nH]c34)C3(C(=O)OC)CC4CC(CC)C3N(CC5)C4)CC1C2C(=O)OC (stereo not drawn)
inactive: [6] 115 % of control | [7] 106 % of control | [4] 106 % of control | [5] 91 % of control

CNC(=O)c1nnn(Cc2ccc(OC)cc2)c1Cl
inactive: [8] 91 % of control | [9] 100 % of control | [10] 100 % of control

CCCCCCCCCCn1cc[nH]c1=S
inactive: [11] 103 % of control | [8] 107 % of control and 115 % of control | [9] 105 % of control and 112 % of control | [10] 117 % of control

CO[C@H]1/C=C/O[C@@]2(C)Oc3c(C)c(O)c4c(O)c(c(/C=N/N5CCN(C)CC5)c(O)c4c3C2=O)NC(=O)/C(C)=C\C=C\[C@H](C)[C@H](O)[C@@H](C)[C@@H](O)[C@@H](C)[C@H](OC(C)=O)[C@@H]1C
inactive: dose: 25.0 mg/kg/injection, schedule: Q01DX009 (ip), vehicle: other 92 % of control | [7] 100 % of control | dose: 25.0 mg/kg/injection, schedule: Q04DX003 (ip), vehicle: distilled water + Tween-80 106 % of control | dose: 25.0 mg/kg/injection, schedule: Q04DX003 (ip), vehicle: other 99 % of control and 97 % of control | dose: 50.0 mg/kg/injection, schedule: Q01DX009 (ip), vehicle: other 98 % of control | [4] 100 % of control | dose: 50.0 mg/kg/injection, schedule: Q04DX003 (ip), vehicle: distilled water + Tween-80 105 % of control and 110 % of control | dose: 50.0 mg/kg/injection, schedule: Q04DX003 (ip), vehicle: other 106 % of control and 109 % of control | dose: 100.0 mg/kg/injection, schedule: Q01DX009 (ip), vehicle: other 89 % of control | [5] 100 % of control | dose: 100.0 mg/kg/injection, schedule: Q04DX003 (ip), vehicle: distilled water + Tween-80 96 % of control and 97 % of control | dose: 100.0 mg/kg/injection, schedule: Q04DX003 (ip), vehicle: other 107 % of control and 115 % of control | dose: 100.0 mg/kg/injection, schedule: Q04DX003 (ip), vehicle: saline sonified 95 % of control | dose: 200.0 mg/kg/injection, schedule: Q01DX009 (ip), vehicle: other 107 % of control | dose: 200.0 mg/kg/injection, schedule: Q04DX003 (ip), vehicle: distilled water + Tween-80 106 % of control | dose: 200.0 mg/kg/injection, schedule: Q04DX003 (ip), vehicle: other 110 % of control | dose: 200.0 mg/kg/injection, schedule: Q04DX003 (ip), vehicle: saline sonified 104 % of control | dose: 400.0 mg/kg/injection, schedule: Q04DX003 (ip), vehicle: distilled water + Tween-80 103 % of control | dose: 400.0 mg/kg/injection, schedule: Q04DX003 (ip), vehicle: saline sonified 109 % of control

CC(=O)OCCSCCO
inactive: dose: 25.0 mg/kg/injection, schedule: Q01DX009 (ip), vehicle: water 94 % of control | dose: 50.0 mg/kg/injection, schedule: Q01DX009 (ip), vehicle: water 99 % of control | dose: 100.0 mg/kg/injection, schedule: Q01DX009 (ip), vehicle: water 99 % of control | dose: 200.0 mg/kg/injection, schedule: Q01DX009 (ip), vehicle: water 104 % of control | dose: 400.0 mg/kg/injection, schedule: Q01DX009 (ip), vehicle: water 99 % of control

CCOc1ccc(N2C(=O)C(=O)C(C(C)=O)C2=O)cc1 (stereo not drawn)
inactive: dose: 50.0 mg/kg/injection, schedule: Q01DX009 (ip), vehicle: Klucel (hydroxypropylcellulose) (HPC) 108 % of control | dose: 100.0 mg/kg/injection, schedule: Q01DX009 (ip), vehicle: Klucel (hydroxypropylcellulose) (HPC) 106 % of control | dose: 200.0 mg/kg/injection, schedule: Q01DX009 (ip), vehicle: Klucel (hydroxypropylcellulose) (HPC) 100 % of control

CNc1ncnc2c1ncn2C1CCCCO1 (stereo not drawn)
inactive: [12] 102 % of control | [13] 100 % of control | [14] 91 % of control

CN1CC(C(N)=O)=CC(C(N)=O)C1 (stereo not drawn)
inactive: dose: 25.0 mg/kg/injection, schedule: Q01DX005 (ip), vehicle: saline 97 % of control | [12] 96 % of control | [13] 113 % of control | [14] 111 % of control

O=C1c2cccnc2C(=O)N1CCO
inactive: [12] 95 % of control | [13] 100 % of control | [14] 101 % of control

C[n+]1ccccc1-c1ccc[n+](CCC[n+]2cccc(-c3cccc[n+]3C)c2)c1
inactive: dose: 100.0 mg/kg/injection, schedule: Q04DX002 (ip), vehicle: saline 105 % of control | dose: 200.0 mg/kg/injection, schedule: Q04DX002 (ip), vehicle: saline 102 % of control | dose: 400.0 mg/kg/injection, schedule: Q04DX002 (ip), vehicle: saline 108 % of control

C/C(CC(O)(c1ccccc1)c1ccccc1)=N/Sc1ccccc1
inactive: dose: 100.0 mg/kg/injection, schedule: Q04DX003 (ip), vehicle: Klucel (hydroxypropylcellulose) (HPC) 100 % of control | dose: 200.0 mg/kg/injection, schedule: Q04DX003 (ip), vehicle: Klucel (hydroxypropylcellulose) (HPC) 92 % of control | dose: 400.0 mg/kg/injection, schedule: Q04DX003 (ip), vehicle: Klucel (hydroxypropylcellulose) (HPC) 94 % of control

CCOC(=O)c1cc(CC)[nH]c(=O)c1C#N
inactive: [11] 92 % of control | [8] 98 % of control | [9] 100 % of control

CC(C)N(C(=O)c1cccc(C(=O)N(C(C)C)C(C)C)n1)C(C)C
inactive: [15] 101 % of control | [16] 95 % of control | [17] 95 % of control

COc1ccc(/C=C2/C(=O)N(c3ccccc3)N=C2C)cc1OC
inactive: [1] 101 % of control | [2] 93 % of control | [3] 90 % of control

COc1ccc2[nH]c(C)c(CN(C(C)=O)C(C)=O)c(=O)c2c1
inactive: [15] 103 % of control | [16] 112 % of control | [17] 86 % of control

[N-]=[N+]=NC(=O)Nc1ccccc1F
inactive: dose: 3.75 mg/kg/injection, schedule: Q01DX005 (ip), vehicle: Klucel (hydroxypropylcellulose) (HPC) 96 % of control | dose: 7.5 mg/kg/injection, schedule: Q01DX005 (ip), vehicle: Klucel (hydroxypropylcellulose) (HPC) 90 % of control and 97 % of control | dose: 15.0 mg/kg/injection, schedule: Q01DX005 (ip), vehicle: Klucel (hydroxypropylcellulose) (HPC) 104 % of control

COC(=O)C1=NC(c2ccccc2)(c2ccccc2)C(C(=O)OC)=C(C(=O)OC)P(c2ccccc2)(c2ccccc2)=C1C(=O)OC
inactive: [8] 88 % of control | [9] 92 % of control | [10] 110 % of control
